Experimental data taken from patent EP0563345B1, “NOVEL 4-ARYLPIPERAZINES AND 4-ARYLPIPERIDINES” (MCNEILAB, INC., priority 1991, dated 1993).
Counter-ions that a name gives are not always drawn.

Experiments:
[1] = molecular target: T1, D-2 (dopamine-2) receptors (Rattus norvegicus, UniProt P61169); assay: biochemical; assay type: binding, male, Wistar rats; details: rat striatum P2 fraction, 3H-spiperone 0.05 nM; read-out: Receptor Binding (Ki nM) D2
T1 construct: The D2 assay employed a P2 fraction from the striatum, the ligand ^3H-spiperone at a concentration of 0.05 nM; from tissue; host or cells: rat striatum, P2 fraction (synaptosomal membranes), male Wistar rats
Protocol: The dopamine D2 binding activity of compounds was determined using a P2 fraction (synaptosomal membranes) prepared from male, Wistar rats.
The data from this assay were analyzed by calculating the percent inhibition of the binding of the tritiated ligands by given concentrations of the test compound. Kl values, where given, were obtained from the logit analysis of concentration-inhibition curves.

Male, Fischer 344 rats = assay: Block of Conditioned Avoidance Responding (Rat) test (CAR); details: for CAR 5 mg/kg IP Administration (% change CAR) / CAR 15 mg/kg IP Administration (% change CAR): negative number = blockade of CAR
Source text: Apparatus: Rat operant chambers, housed within sound attenuated booths, both from Capden Instruments Ltd., were used in this test. The test chamber (8" H x […] D) is constructed of aluminum and plexiglass with floor grid bars of stainless-steel (1/8" O.D.) spaced 9/16" apart. A stainless-steel operation level 1-1/2" wide projects 3/4" into the chamber and is positioned 2-2/8" above the grid floor. The shock stimulus is delivered via the grid floor by a Coulbourn Instruments solid state module. The parameters of the test and the collection of data are controlled automatically.
The rats are trained for two weeks to approach criterion levels in the avoidance test (90% avoidance rate). One-hour training sessions are run at about the same time each day for four or five days a week. The training session consists of 120 trials, with the conditioned stimuli presented every 30 sec. A trial begins with presentation of the conditioned stimuli (a light and a tone). If the rat responds by depressing the operant lever during the 15-second presentation of the conditioned stimuli, the trial is terminated and the animal is credited with a CAR. Failure to respond during the conditioned stimuli causes the presentation of the unconditioned stimulus (UCS), a 0.7 mA shock which is accompanied by a light and tone for five seconds. If the rat depressed the lever within the ten-second period, the shock and trial are terminated and an escape response recorded. If the rat fails to depress the lever during the UCS (shock), the trial is terminated after ten seconds of shock and the absence of a response is scored as a failure to escape. Intertrial level presses have no effect. If a rat performs at the 90% CAR level for two weeks, it is then run twice a week on the test schedule (see below) until baseline performance stabilized.
Trained rats are run in a one-hour session on two consecutive days at the same time and in the same test chamber each day. The sessions consist of 60 trials, one every minute. The conditioned stimuli are presented for 15 sec (maximum) and the unconditioned stimuli five sec (maximum). On Day 1, a vehicle solution is administered to the rats at a time preceding the trial run corresponding to the pretreatment time for the test compound. The route of administration and the volume of vehicle are also matched to that of the test compound.
The percent change in CAR on the drug treatment day compared to vehicle pretreatment day is the key measure. The percent change (% change) in CAR is determined using the following formula: % change CAR = ((% CAR for Day 2/% CAR for Day 1) x 100)-100 [formula]
A negative number indicates a blockade of CAR, whereas a positive number would indicate increased CAR. The test results are reported as the mean % change for the group of rats. Failure to escape, a measure of the general sedative potential of the compound, was calculated for each animal as follows: % Failures = # of Failures to Escape/# of trials [formula]
The % failures, viz., loss of escape, is also reported as a group mean. Failures to escape are monitored closely and a session is terminated if ten failures occurred.
In the Tables and formulas therein, OiPr is isopropoxy, Me is methyl, MeO is methoxy, Et is ethyl, Ph is phenyl, n-Bu is normal butyl, cC6H11 is cyclohexyl, BOC is t-butyloxycarbonyl, Ac is acetyl, and NT is not tested in that partcular test. The escape loss numbers are shown at CAR 5 mg/kg unless otherwise noted.

Male Charles-River rats = assay: Rat Glass Bead Test (propulsive motility of the distal colon); assay type: in vivo; details: mean expulsion time of glass bead
Protocol: The rat glass bead test is used to evaluate the action of compounds on propulsive motility of the distal colon. Male Charles-River rats weighing 50-90 grams are fasted for at least 18 hours in individual cages with water provided. Groups of rats are then dosed by the indicated route at the appropriate pretreatment time. A 4 mm glass bead is then inserted 3.5 cm into the distal colon through the anus using a 4 mm diameter glass rod. Rats are then placed in open top glass jars and observed for 60 minutes. The time for expulsion of the bead is noted for each rat. Rats not expelling the bead after 60 minutes are necropsied and the presence of the bead in the colon confirmed. […] Statistical analysis is done using one way analysis of variance and Fisher's LSD comparison. A probability of less than 0.05 is considered to be statistically significant.

T1 sequence (P61169 whole entry): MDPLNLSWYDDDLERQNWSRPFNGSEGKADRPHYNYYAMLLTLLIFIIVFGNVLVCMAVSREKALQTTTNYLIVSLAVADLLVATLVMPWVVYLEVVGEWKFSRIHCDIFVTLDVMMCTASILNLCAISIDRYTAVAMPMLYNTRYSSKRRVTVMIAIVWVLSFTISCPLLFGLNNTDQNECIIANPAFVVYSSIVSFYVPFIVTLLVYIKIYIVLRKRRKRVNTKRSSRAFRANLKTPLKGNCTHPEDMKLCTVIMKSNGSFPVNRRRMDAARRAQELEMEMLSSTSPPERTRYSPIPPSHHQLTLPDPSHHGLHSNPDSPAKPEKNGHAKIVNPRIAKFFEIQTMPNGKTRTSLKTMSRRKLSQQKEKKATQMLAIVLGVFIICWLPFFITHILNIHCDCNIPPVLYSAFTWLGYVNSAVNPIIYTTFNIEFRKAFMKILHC

Structure (SMILES) | Ki [1] [nM] | (Escape Loss) % failures to escape (Male, Fischer 344 rats; at CAR 5 mg/kg IP) [%] | (Escape Loss) % failures to escape (Male, Fischer 344 rats; at CAR 15 mg/kg IP) [%] | CAR 5 mg/kg IP Administration (% change CAR) (Male, Fischer 344 rats) [%] | Glass bead expulsion time (Male Charles-River rats; IP, 1.0 mg/kg) [min] | Glass bead expulsion time (Male Charles-River rats; PO, 10.0 mg/kg) [min] | CAR 15 mg/kg IP Administration (% change CAR) (Male, Fischer 344 rats) [%]
CC(C)Oc1cc(F)ccc1N1CCN(Cc2cccc(C(=O)N3CCCCCC3)c2)CC1 [Compound 79] | 12 | 44 | – | -86 | 17 | – | –
CC(C)Oc1ccccc1N1CCN(Cc2cccc(C(N)=O)c2)CC1 [Compound 77] | 46 | 27 | – | -89 | 12 | – | –
CC(C)Oc1ccccc1N1CCN(Cc2cccc(C(=O)N3[C@H](C)CCC[C@@H]3C)c2)CC1 [Compound 59, 1-[3-[[4-[2-(1-Methylethoxy)phenyl]-1-piperazinyl]methyl]-benzoyl]-2,6-dimethylpiperidine hydrochloride (3:2)] | 7.2 | 10 | – | -72 | 43 | – | –
CC(C)Oc1ccccc1N1CCN(Cc2cccc(C(=O)N3CCCCC3=O)c2)CC1.O=C(O)/C=C/C(=O)O [Compound 66, 1-[3-[[4-[2-(1-Methylethoxy)phenyl]-1-piperazinyl]methyl]benzoyl]-2-piperidone Fumarate] | – | – | 0 | – | 18 | – | -92
CCOC(=O)N1CCN(C(=O)c2cccc(CN3CCN(c4ccccc4OC(C)C)CC3)c2)CC1 [Compound 63] | 121 | 1 | – | -20 | 41 | – | –
CC(C)Oc1ccccc1N1CCN(Cc2cccc(C(=O)N(C)C3CCCCC3)c2)CC1 [Compound 72] | – | 21 | – | -99 | 29 | – | –
COc1cc2c(cc1OC)CN(C(=O)c1cccc(CN3CCN(c4ccccc4OC(C)C)CC3)c1)CC2 [Compound 60] | 11 | – | 7 | – | 18 | – | -93
CCCc1ccccc1N1CCN(Cc2cccc(C(=O)N3CCCCC3)c2)CC1 [Compound 81] | – | – | 0 | – | 22 | – | -8
CC(C)Oc1ccccc1N1CCN(Cc2cccc(C(=O)N3CCCCCCC3)c2)CC1 [Compound 55] | – | 27 | – | -93 | 13 | – | –
CC(C)Oc1cc(F)ccc1N1CCN(Cc2cccc(C(=O)N3CCCCC3)c2)CC1 [Compound 78] | – | 4 | – | -82 | 28 | – | –
CC(C)Oc1ccccc1N1CCN(Cc2cccc(C(=O)N3CCCC(C)(C)C3)c2)CC1 [Compound 57] | 4.8 | 25 | – | -86 | 22 | – | –
CC(C)Oc1ccccc1N1CCN(Cc2cccc(C(=O)N3CCN(c4ccccc4)CC3)c2)CC1 [Compound 62] | 10.4 | 23 | – | -28 | 21 | – | –
O=C(c1cccc(CN2CCN(c3cccc4ccccc34)CC2)c1)N1CCCCC1 [Compound 35] | – | – | 0 | – | – | 19 | -19
CC(C)Oc1ccccc1N1CCN(Cc2cccc(C(=O)NC3CCCCC3)c2)CC1 [Compound 71] | – | – | 0 | – | 23 | – | -86
CCCCN(C)C(=O)c1cccc(CN2CCN(c3ccccc3OC(C)C)CC2)c1 [Compound 70] | 15 | 2 | – | -68 | 14 | – | –
O=C(c1cccc(CN2CCN(c3nsc4ccccc34)CC2)c1)N1CCCCC1 [Compound 32] | – | 8 | – | -90 | 41 | – | –
CC1CCN(C(=O)c2cccc(CN3CCN(c4ccccc4OC(C)C)CC3)c2)CC1 [Compound 58] | 9 | 9 | – | -81 | 29 | – | –

Second part, led by results:

Ki [1] [nM] | (Escape Loss) % failures to escape (Male, Fischer 344 rats; at CAR 5 mg/kg IP) [%] | (Escape Loss) % failures to escape (Male, Fischer 344 rats; at CAR 15 mg/kg IP) [%] | Structure (SMILES) | CAR 5 mg/kg IP Administration (% change CAR) (Male, Fischer 344 rats) [%] | Glass bead expulsion time (Male Charles-River rats; IP, 1.0 mg/kg) [min] | Glass bead expulsion time (Male Charles-River rats; PO, 10.0 mg/kg) [min] | CAR 15 mg/kg IP Administration (% change CAR) (Male, Fischer 344 rats) [%]
11 | – | – | CC(C)Oc1ccccc1N1CCN(Cc2ccccc2C(=O)N2CCCCCC2)CC1 [Compound 113] | – | – | 15 | –
– | 26 | – | CCOc1ccccc1N1CCN(Cc2cccc(C(=O)N3CCCCCC3)c2)CC1 [Compound 83] | -97 | 21 | – | –
– | – | 0 | O=C(c1cccc(CN2CCN(c3ccccc3Cl)CC2)c1)N1CCCCC1 [Compound 89] | – | 16 | – | -68
– | 5 | – | N#Cc1ccccc1N1CCN(Cc2cccc(C(=O)N3CCCCC3)c2)CC1 [Compound 90] | -74 | 27 | – | –
18 | 0 | – | CC(C)Oc1ccccc1N1CCN(Cc2cccc(S(=O)(=O)N3CCCCC3)c2)CC1 [Compound 105] | -7 | – | 10 | –
281 | – | 7 | O=C(c1cccc(CN2CCN(c3ccccc3C(F)(F)F)CC2)c1)N1CCCCC1 [Compound 88] | – | 29 | – | -60
~100 | – | – | CC(C)Oc1ccccc1N1CCN(Cc2ccc(C(=O)N3CCCCC3)cc2)CC1.Cl.Cl [Compound 103, 1-[4-[[4-[2-(1-Methylethoxy)phenyl]-1-piperazinyl]methyl]benzoyl]piperidine Dihydrochloride] | – | 43 | – | –
121 | – | 17 | COc1ccccc1N1CCN(Cc2cccc(C(=O)N3CCCCCCC3=O)c2)CC1 [Compound 86] | – | 22 | – | -27
41 | – | 0 | CCCc1ccccc1N1CCN(Cc2cccc(C(=O)N3CCCCCC3)c2)CC1 [Compound 82] | – | 16 | – | -8
16 | – | – | CC(C)Oc1ccccc1N1CCN(Cc2ccccc2C(=O)N(C)C2CCCC2)CC1 [Compound 112] | – | 11 | – | –
45 | 2 | – | CC(C)Oc1ccccc1N1CCN(Cc2cccc(S(=O)(=O)N3CCCC(C)(C)C3)c2)CC1 [Compound 104] | -4 | – | 50 | –
– | – | 3 | O=C(c1cccc(CN2CCN(c3cccc(C(F)(F)F)c3)CC2)c1)N1CCCCC1 [Compound 92] | – | 17 | – | -72
